Where no end group is shown, it is not given here.
What was measured:
alpha4 integrin = molecular target: T1, alpha4 integrin (Homo sapiens, UniProt P13612); assay: alpha4 integrin binding
T1 sequence (P13612 34-1032): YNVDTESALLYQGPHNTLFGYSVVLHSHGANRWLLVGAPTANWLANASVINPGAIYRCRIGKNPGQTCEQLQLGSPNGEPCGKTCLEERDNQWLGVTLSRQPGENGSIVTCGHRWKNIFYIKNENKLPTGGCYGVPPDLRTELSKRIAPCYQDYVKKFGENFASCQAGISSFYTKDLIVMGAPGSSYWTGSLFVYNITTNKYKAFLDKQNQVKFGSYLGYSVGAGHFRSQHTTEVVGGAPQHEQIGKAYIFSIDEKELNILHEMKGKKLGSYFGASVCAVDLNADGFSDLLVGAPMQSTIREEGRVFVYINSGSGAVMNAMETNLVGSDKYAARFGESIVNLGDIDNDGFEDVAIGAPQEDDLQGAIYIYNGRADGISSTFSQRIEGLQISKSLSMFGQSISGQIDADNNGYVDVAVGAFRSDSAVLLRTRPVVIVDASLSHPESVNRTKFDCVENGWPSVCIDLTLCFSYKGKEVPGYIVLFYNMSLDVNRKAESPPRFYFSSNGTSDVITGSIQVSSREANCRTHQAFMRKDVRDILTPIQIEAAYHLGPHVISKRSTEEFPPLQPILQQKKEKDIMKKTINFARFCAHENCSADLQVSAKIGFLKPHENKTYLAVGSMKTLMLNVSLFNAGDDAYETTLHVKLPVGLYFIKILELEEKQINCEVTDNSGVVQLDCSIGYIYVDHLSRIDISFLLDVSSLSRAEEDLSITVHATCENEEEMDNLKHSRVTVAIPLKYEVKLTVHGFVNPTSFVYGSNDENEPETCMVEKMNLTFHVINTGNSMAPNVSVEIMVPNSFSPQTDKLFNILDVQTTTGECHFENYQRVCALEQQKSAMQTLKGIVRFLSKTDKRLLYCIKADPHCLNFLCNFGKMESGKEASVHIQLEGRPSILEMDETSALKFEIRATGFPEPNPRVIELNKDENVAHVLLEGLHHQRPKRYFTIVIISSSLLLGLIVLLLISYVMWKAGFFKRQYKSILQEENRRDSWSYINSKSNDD
Text: (§1) Several screening methods were utilized. Most of the methods follow a similar protocol outlined below.
(§2) A tertiary library may be constructed from a third round of screening and those peptides selected may be used in functional screening assays to further isolate peptides of specific activity.

[1] = Tolerability of the peptide in animals; type: in vivo
Experimental: To evaluate that effectiveness of SEQ ID NO: 54 against primary tumor growth and metastasis, 1×10^7 cells were injected subcutaneously into the left flank of nude mice. After six weeks the resulting tumors were aseptically dissected out, minced and 1 mm-tumor pieces were transplanted into the right flank of nude mice using a trocar needle. Two weeks later, when tumors were measured approximately 10 mm, mice were assigned to different experimental groups. One group of 24 animals bearing MDA-MB-231 xenografts were divided into 3 groups that received the following treatments one group of 8 animals received a weekly injection of apoptotic peptide (0.3-100 μg/kg for SEQ ID NO: 54) through the peritoneal cavity. […] Tumors were measured once every two days with microcalipers, and tumor volume was calculated as length×width×height×0.5236. Body weights were measured on the day of the injection, 4 days later and weekly thereafter. […] Total leukocyte and platelet counts were determined manually using a hemocytometer. […] Treatment-related toxicity was evaluated based on the differences in body weight, liver and kidney marker enzymes and the hematological parameters between treatment groups. […] Liver, heart, uterus, ovaries, lungs spinal cord and all long bones were evaluated histologically. […]

eosinophils = assay: Activation of apoptosis in eosinophils; type: cell-based; details: versus control
Text: SEQ ID NO: 56 (Acetylated-GRGENPS) activates apoptosis in eosinophils. […] Fibronectin in combination with SEQ ID NO: 56 further increased the percentage of apoptotic cells by roughly 70%.

cell = assay: Cell entry of peptides; type: cell-based
Text: as §1, §2

[2] = test system: cell/collagen interaction; assay: Cell/collagen interaction; type: cell-based
Text: as §1, §2

tumor cells [3] = assay: Apoptosis of tumor cells; type: cell-based
Text: as §1, §2

Endothelial cell = Endothelial cell attachment; type: cell-based
Text: as §1, §2

melanoma cell = assay: Melanoma cell attachment; type: cell-based
Text: as §1, §2

Heparin binding = assay: Heparin binding
Text: as §1, §2

collagenase = assay: Collagenase induction; type: cell-based
Text: as §1, §2

tumor cells [4] = assay: Homotypic aggregation of tumor cells; type: cell-based
Text: as §1, §2

[5] = test system: neutrophils, endothelium, fibrosarcomas melanoma; assay: Neutrophils, endothelium, fibrosarcomas, melanoma attachment; type: cell-based
Text: as §1, §2

cell-cell = assay: Cell-cell adhesion; type: cell-based
Text: as §1, §2

CD44 = CD44 (Homo sapiens, UniProt P16070); assay: CD44 interaction with GAG; type: binding
Text: as §1, §2

fibroblast = assay: Fibroblast attachment; type: cell-based
Text: as §1, §2

invasion complex = assay: Invasion complex binding, in vitro studies
Text: SEQ ID NO: 55 ([…] is a peptide derived and modified from a parent peptide isolated using minicell display. The design objective for the parent peptide was to generate a mini protein with the mechanistic advantages of taxol, but devoid of the toxicity and side effects of taxol-type drugs.

[6] = Induction of apoptosis and cell death; type: cell-based
[7] = test system: integrin signaling, CD44 signaling, rhoB; assay: Integrin/CD44 signaling and microtubule stabilization in vivo
β integrin = β integrin binding
Text: as §1, §2

macrophage = assay: Macrophage recruitment by osteopontin, C5a, fibronectin (activity assay of minicell display peptides); type: cell-based
Text: as §1, §2

Chain of CD44 (P16070 21-742, species assumed): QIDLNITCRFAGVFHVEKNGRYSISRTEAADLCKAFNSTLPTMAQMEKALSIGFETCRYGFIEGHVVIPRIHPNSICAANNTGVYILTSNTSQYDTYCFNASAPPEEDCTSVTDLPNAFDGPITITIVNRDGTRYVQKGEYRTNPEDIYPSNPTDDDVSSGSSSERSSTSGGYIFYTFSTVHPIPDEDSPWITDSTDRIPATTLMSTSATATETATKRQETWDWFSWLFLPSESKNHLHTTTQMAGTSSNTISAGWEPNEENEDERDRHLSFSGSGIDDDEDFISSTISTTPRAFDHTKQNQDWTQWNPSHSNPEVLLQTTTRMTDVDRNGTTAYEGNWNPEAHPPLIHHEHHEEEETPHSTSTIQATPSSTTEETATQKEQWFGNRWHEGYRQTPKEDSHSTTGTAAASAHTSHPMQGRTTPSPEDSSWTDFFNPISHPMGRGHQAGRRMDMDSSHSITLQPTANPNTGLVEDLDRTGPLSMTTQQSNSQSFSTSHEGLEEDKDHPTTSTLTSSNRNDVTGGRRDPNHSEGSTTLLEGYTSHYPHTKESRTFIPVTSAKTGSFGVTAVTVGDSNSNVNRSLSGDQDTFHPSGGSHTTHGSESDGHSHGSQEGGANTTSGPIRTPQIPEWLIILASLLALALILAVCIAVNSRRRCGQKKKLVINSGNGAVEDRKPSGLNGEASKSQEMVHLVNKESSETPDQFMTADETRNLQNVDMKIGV

Substance: AADVESPS [SEQ ID NO:22]
- FUNCTIONAL ACTIVITY: alpha4 integrin binding (alpha4 integrin): Inhibits alpha4 integrin

Substance: Ac-DKMLDP [SEQ ID NO: 54, DKMLDP]
- Therapeutic index [1]: high
- Tolerability of relatively high doses ([1]; more than ten fold the optimum effective dose): no deleterious effects

Substance: Acetylated-GRGENPS (Ac-GRGENPS) [SEQ ID NO: 56]
- Increase of the percentage of apoptotic cells (eosinophils): roughly 20%

Substance: CVVVLVL [SEQ ID NO: 19]
- FUNCTIONAL ACTIVITY: cell entry of peptides (cell): Promotes cell entry of peptides

Substance: DADQKFGFC [SEQ ID NO:12]
- FUNCTIONAL ACTIVITY: cell/collagen interaction [2]: Inhibits cell/collagen

Substance: DDDRKWGFC [SEQ ID NO:8]
- FUNCTIONAL ACTIVITY: cell/collagen interaction [2]: Inhibits cell/collagen

Substance: DGGRGDSLGWYRRGRGGARRSKAKKAAAKNNQKSEPLIGRKKT [SEQ ID NO:52]
- FUNCTIONAL ACTIVITY: Apoptotic to tumor cells (tumor cells [3]): Apoptotic to tumor cells

Substance: DPGYIGSR [SEQ ID NO:41]
- FUNCTIONAL ACTIVITY: endothelial cell attachment (Endothelial cell): Inhibits endothelial cell

Substance: DQDQRWGYC [SEQ ID NO:9]
- FUNCTIONAL ACTIVITY: cell/collagen interaction [2]: Inhibits cell/collagen

Substance: DRDRAWGYC [SEQ ID NO:10]
- FUNCTIONAL ACTIVITY: cell/collagen interaction [2]: Inhibits cell/collagen

Substance: DRQWGLC [SEQ ID NO:11]
- FUNCTIONAL ACTIVITY: cell/collagen interaction [2]: Inhibits cell/collagen

Substance: DRYLKFRPV [SEQ ID NO:38]
- FUNCTIONAL ACTIVITY: melanoma cell attachment (melanoma cell): Inhibits melanoma cell

Substance: DSVAYGLKSK [SEQ ID NO:15]
- FUNCTIONAL ACTIVITY: heparin binding (Heparin binding): Inhibits heparin binding

Substance: DSVAYGLKSRSK [SEQ ID NO:16]
- FUNCTIONAL ACTIVITY: heparin binding (Heparin binding): Inhibits heparin binding

Substance: DSVVYGLRSK [SEQ ID NO:14]
- FUNCTIONAL ACTIVITY: heparin binding (Heparin binding): Inhibits heparin binding

Substance: EPEESDVGGAADYP [SEQ ID NO:25]
- FUNCTIONAL ACTIVITY: alpha4 integrin binding (alpha4 integrin): Inhibits alpha4 integrin

Substance: ESHQKYGYCGGCDRNNP [SEQ ID NO:13]
- FUNCTIONAL ACTIVITY: cell/collagen interaction [2]: Inhibits cell/collagen

Substance: GRGDNPS [SEQ ID NO:35]
- FUNCTIONAL ACTIVITY: collagenase induction (collagenase): collagenase induction

Substance: HGRFILPWWYAFSPS [SEQ ID NO:48]
- FUNCTIONAL ACTIVITY: homotypic aggregation of tumor cells (tumor cells [4]): Inhibit homotypic aggregation

Substance: HKFVHWKKPVLPSQNNQ [SEQ ID NO:39]
- FUNCTIONAL ACTIVITY: melanoma cell attachment (melanoma cell): Inhibits melanoma cell

Substance: KGMNYTVR [SEQ ID NO:40]
- FUNCTIONAL ACTIVITY: neutrophils, endothelium, fibrosarcomas melanoma attachment [5]: Inhibits, neutrophils,

Substance: KKAKKSRRS [SEQ ID NO:49]
- FUNCTIONAL ACTIVITY: Anti-adhesion (cell-cell) (cell-cell): Anti-adhesion (cell-cell)

Substance: KKGKKSKRS [SEQ ID NO:50]
- FUNCTIONAL ACTIVITY: Anti-adhesion (cell-cell) (cell-cell): Anti-adhesion (cell-cell)

Substance: KNNQKSEPLIGRKKT [SEQ ID NO:43]
- FUNCTIONAL ACTIVITY: CD44 interaction with GAG (CD44): Inhibits CD44 interaction with

Substance: KRSR [SEQ ID NO:53]
- FUNCTIONAL ACTIVITY: Apoptotic to tumor cells (tumor cells [3]): Apoptotic to tumor cells

Substance: LDSAS [SEQ ID NO:20]
- FUNCTIONAL ACTIVITY: alpha4 integrin binding (alpha4 integrin): Inhibits alpha4 integrin

Substance: LDSPPAALS [SEQ ID NO:21]
- FUNCTIONAL ACTIVITY: alpha4 integrin binding (alpha4 integrin): Inhibits alpha4 integrin

Substance: LVPSSKGRGDYLAQSQP [SEQ ID NO:36]
- FUNCTIONAL ACTIVITY: collagenase induction (collagenase): collagenase induction

Substance: PNGRGESLAY [SEQ ID NO:37]
- FUNCTIONAL ACTIVITY: collagenase induction (collagenase): inhibits collagenase induction
- FUNCTIONAL ACTIVITY: fibroblast attachment (fibroblast): Inhibits fibroblast attachment,

Substance: PYAGRGDSVVYGLKKKNNQKAEPLIGRKKTR [SEQ ID NO: 55]
- Binding to the invasion complex (invasion complex): binds to the invasion complex
- Apoptosis and cell death [6]: induces apoptosis and cell death
- Integrin signaling versus CD44 signaling [7]: uncouple integrin signaling from CD44 signaling
- Microtubules ([7]; by down stream activation of rhoB): stabilization of microtubules

Substance: QESPSGTDLLVAGSSP [SEQ ID NO:26]
- FUNCTIONAL ACTIVITY: alpha4 integrin binding (alpha4 integrin): Inhibits alpha4 integrin

Substance: RRSRSSTGKKQKSSQSRKTA [SEQ ID NO:51]
- FUNCTIONAL ACTIVITY: Anti-adhesion (cell-cell) (cell-cell): Anti-adhesion (cell-cell)

Substance: SDV [SEQ ID NO:24]
- FUNCTIONAL ACTIVITY: alpha4 integrin binding (alpha4 integrin): Inhibits alpha4 integrin

Substance: TPVVPTVDTYDGRGDSLAY [SEQ ID NO:27]
- FUNCTIONAL ACTIVITY: β integrin binding (β integrin): β integrin binding

Substance: VLEP [SEQ ID NO:7]
- FUNCTIONAL ACTIVITY: macrophage recruitment by osteopontin, C5a, fibronectin (macrophage): Inhibitor of macrophage

Substance: VLPTPTPPGYLSSRSSR [SEQ ID NO:42]
- FUNCTIONAL ACTIVITY: endothelial cell attachment (Endothelial cell): Inhibits endothelial cell

Substance: WTGGDDSGSPSSPS [SEQ ID NO:23]
- FUNCTIONAL ACTIVITY: alpha4 integrin binding (alpha4 integrin): Inhibits alpha4 integrin

Substance: YYWRQQQKSDPVVSRRRSPS [SEQ ID NO:44]
- FUNCTIONAL ACTIVITY: CD44 interaction with GAG (CD44): Inhibits CD44 interaction with

Substance: fibronectin [reference compound]
- Change of the percentage of apoptotic cells (in words) (eosinophils): decreased the percentage of apoptotic cells
